The values below come from ChEMBL document CHEMBL1201862, “PubChem BioAssay data set” (2004).

Some test systems named below: ACHN; CAKI-1; EKVX; HCC 2998; HCT-116; HCT-15; HL-60; HOP-92; MCF7; MOLT-4; Malme-3M; NCI-H23; NCI/ADR-RES; OVCAR-5; OVCAR-8; RXF 393; SNB-19; SR; U-251; UACC-62.
What all share (assay): NCI tumour cell line growth inhibition, 48 h

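Step 1: Grow cells in 96-well plates. Step 2: Expose to compound for 48 hours at 5 concentrations. Step 3: Interpolate endpoints linearly; if unreached, use highest concentration. The concentration for 50% growth inhibition is given as GI50.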 Calls of active or inactive are those of the source. No stated cut-off is given here; in the data, active = GI50 up to about 1.1 µM and inactive = higher.

With `CC1=NN=C(C)C1/N=N/c1ccc2[nH]c(C)nc2c1`, the GI50 is 7.46 µM (inactive) in the assay with ACHN; 5.02 µM (inactive) with CAKI-1; 18.7 µM (inactive) in the assay on EKVX; 58.7 µM (inactive) with HCC 2998; 10.9 µM (inactive) with HCT-116; 6.68 µM in the assay with HCT-15. In addition, the GI50 with HL-60 was 10.8 µM (inactive); in the assay on HOP-92, 14.8 µM (inactive); with MCF7, 28.7 µM (inactive); in the assay on MOLT-4, 13.7 µM (inactive); in the assay with Malme-3M, 6.85 µM (inactive); with NCI-H23, 37.3 µM (inactive). For the same molecule, the GI50 is 38.4 µM (inactive) in the assay with NCI/ADR-RES; 26.2 µM (inactive) with OVCAR-5; 15.9 µM (inactive) in the assay with OVCAR-8; 5.16 µM (inactive) in the assay with RXF 393; > 100 µM (inactive) with SNB-19; 5.41 µM (inactive) with SR. Also, the results for the GI50 in the assay on U-251 and in the assay with UACC-62 were 34.6 µM (inactive) and 14.9 µM (inactive), respectively.
Consider `COc1ccc(/C=C2\CCC(C)C3=C2NC(=S)NC3c2ccc(OC)c(OC)c2)cc1OC` (stereo not given), for which the GI50 was 24.3 µM (inactive) in the assay on ACHN; 15.6 µM (inactive) in the assay on CAKI-1; 20.1 µM (inactive) in the assay on EKVX; 74.1 µM (inactive) in the assay on HCC 2998; 15.3 µM (inactive) in the assay with HCT-116; 9.95 µM with HCT-15. In addition, the GI50 was 3.6 µM (inactive) in the assay with HL-60; 36.1 µM (inactive) in the assay with HOP-92; 14.9 µM (inactive) in the assay on MCF7; 4.99 µM (inactive) in the assay with MOLT-4; > 10 µM (inactive) in the assay with Malme-3M; > 10 µM (inactive) in the assay with NCI-H23. In addition, the GI50 with NCI/ADR-RES was 27.5 µM (inactive); in the assay on OVCAR-5, > 31.6 µM (inactive); with OVCAR-8, 26.1 µM (inactive); in the assay on RXF 393, > 10 µM (inactive); in the assay on SNB-19, 30.4 µM (inactive); with SR, 2.65 µM (inactive). Also, the GI50 in the assay with U-251 is 24.6 µM (inactive); in the assay on UACC-62, 20.2 µM (inactive).
`O=NN(CCCl)C(=O)N[C@H]1CC[C@@H](C(=O)O)CC1`: the GI50 in the assay on ACHN is 65.6 µM (inactive); with CAKI-1, 92.9 µM (inactive); with EKVX, > 100 µM (inactive); with HCC 2998, > 100 µM (inactive); in the assay on HCT-116, > 100 µM (inactive); in the assay on HCT-15, over 100 µM. In addition, the GI50 was 33.7 µM (inactive) with HL-60; > 76 µM (inactive) in the assay with HOP-92; > 100 µM (inactive) in the assay on MCF7; 32.2 µM (inactive) in the assay on MOLT-4; > 96.2 µM (inactive) with Malme-3M; 97.7 µM (inactive) in the assay with NCI-H23. Besides, the GI50 with NCI/ADR-RES is > 100 µM (inactive); in the assay with OVCAR-5 it was > 100 µM (inactive); in the assay with OVCAR-8 it was > 100 µM (inactive); in the assay with RXF 393, > 100 µM (inactive); with SNB-19, 70 µM (inactive); in the assay on SR, 40.2 µM (inactive). Also, the GI50 in the assay with U-251 was 40.9 µM (inactive); in the assay with UACC-62, 21.3 µM (inactive).
Regarding `Cc1ccc(NC2=NCCO2)c2c1CCC2`, the GI50 with ACHN was 85.3 µM (inactive); in the assay with CAKI-1, > 100 µM (inactive); in the assay on EKVX, 48.4 µM (inactive); in the assay with HCC 2998, 32 µM (inactive); in the assay on HCT-116, 15.3 µM (inactive); in the assay with HCT-15, 44.2 µM. For the same molecule, the GI50 is 16.7 µM (inactive) in the assay on HL-60; 27.3 µM (inactive) with HOP-92; 31.8 µM (inactive) in the assay with MCF7; 33.9 µM (inactive) in the assay with MOLT-4; 27.8 µM (inactive) with Malme-3M; 32.2 µM (inactive) in the assay with NCI-H23. Further, the GI50 is 20.4 µM (inactive) in the assay on NCI/ADR-RES; 26 µM (inactive) in the assay with OVCAR-5; 35.1 µM (inactive) in the assay on OVCAR-8; 26.8 µM (inactive) with RXF 393; 58.9 µM (inactive) in the assay on SNB-19; 22.1 µM (inactive) with SR. For the same molecule, the GI50 in the assay on U-251 is 39.4 µM (inactive); in the assay on UACC-62, 30.7 µM (inactive).
As for `CNC(=O)C1CCCN1C(=O)C(Cc1c[nH]cn1)NC(=O)C1CCC(=O)N1` (stereo not given), the GI50 in the assay on ACHN is > 100 µM (inactive); with CAKI-1 it was > 100 µM (inactive); in the assay on EKVX, > 100 µM (inactive); with HCC 2998, > 100 µM (inactive); in the assay on HCT-116, > 100 µM (inactive); in the assay with HCT-15 it was over 100 µM. For the same molecule, the GI50 in the assay on HL-60, in the assay with HOP-92, with MCF7, in the assay on MOLT-4, with Malme-3M and in the assay with NCI-H23 was > 100 µM (inactive) each time. Also, the GI50 with NCI/ADR-RES, in the assay with OVCAR-5, in the assay with OVCAR-8, in the assay on RXF 393, in the assay on SNB-19 and in the assay on SR was > 100 µM (inactive) each time. For the same molecule, the GI50 in the assay on U-251 and with UACC-62 was > 100 µM (inactive) throughout.
Consider `[O-][n+]1ccccc1Sc1nc(Sc2cccc[n+]2[O-])nc(Sc2cccc[n+]2[O-])n1`, for which the GI50 in the assay on ACHN is 1.54 µM (inactive); with CAKI-1, 0.9 µM (active); in the assay with EKVX it was 2.34 µM (inactive); in the assay with HCC 2998, 1.51 µM (inactive); with HCT-116, 1.25 µM (inactive); in the assay on HCT-15 it was 1.38 µM. Besides, the GI50 with HL-60 is 0.1 µM (active); in the assay with HOP-92 it was 1.28 µM (inactive); in the assay on MCF7, 0.778 µM (active); in the assay with MOLT-4 it was 0.189 µM (active); with Malme-3M, 1.95 µM (inactive); with NCI-H23 it was 1.36 µM (inactive). In addition, the GI50 in the assay with NCI/ADR-RES is 2.92 µM (inactive); with OVCAR-5 it was 1.7 µM (inactive); in the assay with OVCAR-8 it was 0.569 µM (active); in the assay on RXF 393, 0.444 µM (active); in the assay on SNB-19 it was 13 µM (inactive); in the assay on SR it was 0.171 µM (active). The GI50 with U-251 is 1.69 µM (inactive); in the assay on UACC-62, 1.22 µM (inactive).
In the case of `Oc1ncnc2c1nnn2CCCCCCCCCCCCn1nnc2c(O)ncnc21`, the GI50 is 32.3 µM (inactive) in the assay with ACHN; > 100 µM (inactive) with CAKI-1; 21.3 µM (inactive) in the assay on EKVX; > 78.7 µM (inactive) in the assay on HCC 2998; 18.2 µM (inactive) in the assay with HCT-116; over 100 µM with HCT-15. Besides, the GI50 is > 45.4 µM (inactive) with HL-60; 30 µM (inactive) in the assay on HOP-92; 98.6 µM (inactive) in the assay with MCF7; > 100 µM (inactive) in the assay on MOLT-4; > 100 µM (inactive) in the assay with Malme-3M; 5.68 µM (inactive) with NCI-H23. Also, the GI50 in the assay with NCI/ADR-RES was > 100 µM (inactive); with OVCAR-5, 99.1 µM (inactive); in the assay with OVCAR-8, 41.5 µM (inactive); with RXF 393, 24.3 µM (inactive); in the assay with SNB-19 it was 20.2 µM (inactive); in the assay on SR it was > 35.2 µM (inactive). The GI50 in the assay with U-251 is 21.5 µM (inactive); in the assay with UACC-62, 36.9 µM (inactive).
For `COc1ccc(CNC(=O)[C@H](Cc2ccc(O)cn2)NC(C)=O)cc1OC`, the GI50 in the assay with ACHN is > 100 µM (inactive); in the assay with CAKI-1, > 100 µM (inactive); in the assay with EKVX it was > 100 µM (inactive); in the assay with HCC 2998, > 100 µM (inactive); with HCT-116, > 100 µM (inactive); in the assay with HCT-15, over 100 µM. Also, the GI50 in the assay on HL-60 is > 100 µM (inactive); in the assay with HOP-92 it was > 100 µM (inactive); in the assay on MCF7 it was > 100 µM (inactive); with MOLT-4, > 96.8 µM (inactive); in the assay with Malme-3M, > 100 µM (inactive); with NCI-H23, > 100 µM (inactive). The GI50 in the assay with NCI/ADR-RES, in the assay with OVCAR-5, with OVCAR-8, with RXF 393, in the assay on SNB-19 and in the assay with SR was > 100 µM (inactive) throughout. The GI50 in the assay with U-251 and with UACC-62 was > 100 µM (inactive) throughout.
`CCN(CC)Cc1nc(C2CCC([N+](=O)[O-])O2)no1` (stereo not given): the GI50 in the assay on ACHN was 98.2 µM (inactive); with CAKI-1, 72.8 µM (inactive); in the assay on EKVX, > 100 µM (inactive); with HCC 2998 it was 20.6 µM (inactive); in the assay on HCT-116, 24.3 µM (inactive); with HCT-15, 19.4 µM. Further, the GI50 was 16.6 µM (inactive) in the assay with HL-60; > 100 µM (inactive) in the assay with HOP-92; 15.6 µM (inactive) in the assay with MCF7; 53.5 µM (inactive) in the assay with MOLT-4; 15.9 µM (inactive) with Malme-3M; 19.3 µM (inactive) in the assay on NCI-H23. The GI50 is 26.7 µM (inactive) with NCI/ADR-RES; 29.3 µM (inactive) in the assay on OVCAR-5; 30.1 µM (inactive) in the assay on OVCAR-8; 31 µM (inactive) in the assay with RXF 393; 28.6 µM (inactive) in the assay with SNB-19; 28.2 µM (inactive) in the assay on SR. The GI50 with U-251 is 28.5 µM (inactive); with UACC-62 it was 14.8 µM (inactive).
For the molecule `CC(C)COP(=O)(OCC(C)C)C(NS(=O)(=O)c1ccccc1)(C(F)(F)F)C(F)(F)F`, the GI50 in the assay on ACHN was 2.99 µM (inactive); with CAKI-1, 5.52 µM (inactive); with EKVX, 4.91 µM (inactive); in the assay with HCC 2998 it was 5.13 µM (inactive); with HCT-116 it was 5.24 µM (inactive); in the assay with HCT-15, 3.94 µM. Also, the GI50 was 1.22 µM (inactive) in the assay on HL-60; 2.2 µM (inactive) in the assay with HOP-92; 7.57 µM (inactive) in the assay with MCF7; 1.41 µM (inactive) in the assay with MOLT-4; 11.9 µM (inactive) in the assay on Malme-3M; 3.81 µM (inactive) in the assay with NCI-H23. Further, the GI50 with NCI/ADR-RES was 4.13 µM (inactive); in the assay on OVCAR-5, 14.2 µM (inactive); in the assay on OVCAR-8, 6.46 µM (inactive); with RXF 393, 3.96 µM (inactive); with SNB-19, 10.2 µM (inactive); in the assay with SR, 2.08 µM (inactive). Besides, the GI50 is 3.77 µM (inactive) with U-251 and 4.81 µM (inactive) with UACC-62.
